Reference: US4486586A, “Cephalosporin derivatives” (Bristol-Myers Company, priority 1983, dated 1984)
Values after ≈ are worked out from the molar mass of the structure shown.

Tests used:
[1] = system: Penicillinresistant S. aureus; experiment: MIC, two-fold serial agar dilution in Mueller-Hinton agar, group (G+)-Ib; type: cell-based; conditions: Staphylococcus aureus, penicillin-resistant S. aureus, 5 strains, read-out: Geometric Mean of MIC, (G+)-Ib
Experimental: (§1) In the primary evaluation of the compounds of this invention, the Minimum Inhibitory Concentrations (MIC's) of the compounds were determined by the two-fold serial agar dilution method in Mueller-Hinton agar against 32 strains of test organisms in six groups.
(G+)Ib: Penicillinresistant S. aureus (5

[2] = system: Penicillinsensitive S. aureus; experiment: MIC, two-fold serial agar dilution in Mueller-Hinton agar, group (G+)-Ia; type: cell-based; conditions: Staphylococcus aureus, penicillin-sensitive S. aureus, 5 strains, read-out: Geometric Mean of MIC, (G+)-Ia
Experimental: as §1

[3] = system: Cephalothinsensitive E. coli, Kl. pneumoniae and Pr. mirabilis; experiment: MIC, two-fold serial agar dilution in Mueller-Hinton agar, group (G-)-Ia; type: cell-based; conditions: cephalothin-sensitive E. coli, 5 strains, read-out: Geometric Mean of MIC, (G-)-Ia
Experimental: as §1
(G-)Ia: Cephalothinsensitive E. coli (2 strains), Kl. pneumoniae (1
strain) and Pr. mirabilis (2 strains)

[4] = system: M. morganii, Ent. cloacae and Ser. marcescens; experiment: MIC, two-fold serial agar dilution in Mueller-Hinton agar, group (G-)-II; type: cell-based; conditions: 5 strains, read-out: Geometric Mean of MIC, (G-)-II
Experimental: as §1
(G-)II: M. morganii (1 strain), Ent. cloacae (2 strains) andSer.

[5] = system: Cephalothinresistant E. coli and Kl. pneumoniae; experiment: MIC, two-fold serial agar dilution in Mueller-Hinton agar, group (G-)-Ib; type: cell-based, E. coli (3 strains) and Kl. pneumoniae (3 strains); conditions: read-out: Geometric Mean of MIC, (G-)-Ib
Experimental: as §1
(G-)Ib: Cephalothinresistant E. coli (3 strains) and Kl. pneumoniae (3

[6] = system: Ps. aeruginosa; experiment: MIC, two-fold serial agar dilution in Mueller-Hinton agar, group (G-)-III; type: cell-based; conditions: Pseudomonas aeruginosa, 7 strains, read-out: Geometric Mean of MIC, (G-)-III
Experimental: as §1
(G-)III: Ps. aeruginosa (7 strains)

`C[N+]1(C/C=C/C2=C(C(=O)[O-])N3C(=O)C(NC(=O)/C(=N\OC4(C(=O)O)CCC4)c4csc(N)n4)[C@H]3SC2)CC=CC1` (stereo partly drawn) [Compound I-5F, 7-[(Z)-2-(2-Aminothiazol-4-yl)-2-(1-carboxycyclobut-1-oxyimino)acetamido]-3-[(E)-3-(1-methyl-3-pyrrolinio)-1-propen-1-yl]-3-cephem-4-carboxylate] gave an MIC [1] of 4 µg/mL (≈ 6.8 µM), an MIC [2] of 1.5 µg/mL (≈ 2.55 µM) and an MIC [3] of 0.037 µg/mL (≈ 0.0629 µM). For the same molecule, the MIC [4] was 0.17 µg/mL (≈ 0.289 µM), the MIC [5] was 0.22 µg/mL (≈ 0.374 µM) and the MIC [6] was 2.4 µg/mL (≈ 4.08 µM).
